Data as given in PubChem BioAssay AID180 (DTP/NCI, 2004).
Several values for one entry are separate records, joined by “and”; a condition that tells them apart may be missing. Identical values can stand only once.

Test system: BDF1 mice, Adenocarcinoma 755 s.c., tumor weight T/C
Assay: NCI In Vivo Anticancer Drug Screen. Data for tumor model Adenocarcinoma 755 (subcutaneous) in B6D2F1 (BDF1) mice
Settings: endpoint: mean tumor weight, higher = larger tumour
Procedure, shortened: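 Readout: T/C, i.e. treated-group measurement over vehicle-control measurement. Endpoint is survival or tumor size in tumor-bearing mice given compound.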

[1] = dose: 15.0 mg/kg/injection, schedule: Q01DX011 (ip), vehicle: carboxymethylcellulose (CMC)
[2] = dose: 50.0 mg/kg/injection, schedule: Q01DX011 (ip), vehicle: carboxymethylcellulose (CMC)
[3] = dose: 50.0 mg/kg/injection, schedule: Q01DX011 (ip), vehicle: methylcellulose (MC)
[4] = dose: 100.0 mg/kg/injection, schedule: Q01DX011 (ip), vehicle: methylcellulose (MC)
[5] = dose: 25.0 mg/kg/injection, schedule: Q01DX011 (ip), vehicle: methylcellulose (MC)
[6] = dose: 30.0 mg/kg/injection, schedule: Q01DX011 (ip), vehicle: carboxymethylcellulose (CMC)
[7] = dose: 60.0 mg/kg/injection, schedule: Q01DX011 (ip), vehicle: carboxymethylcellulose (CMC)

N#CCCn1cnc2c(=S)nc[nH]c21
T/C (dose: 14.0 mg/kg/injection, schedule: Q01DX011 (ip), vehicle: other): 89 % of control

CCOc1nc(N)nc2nc[nH]c12
T/C (dose: 8.0 mg/kg/injection, schedule: Q01DX011 (ip), vehicle: methylcellulose (MC)): 88 % of control
T/C (dose: 16.0 mg/kg/injection, schedule: Q01DX011 (ip), vehicle: methylcellulose (MC)): 55 % of control
T/C (dose: 31.0 mg/kg/injection, schedule: Q01DX011 (ip), vehicle: methylcellulose (MC)): 59 % of control

O=c1[nH]cc(N(CCCl)CCCl)c(=O)[nH]1
T/C (dose: 0.17 mg/kg/injection, schedule: Q01DX011 (ip), vehicle: carboxymethylcellulose (CMC)): 82 % of control
T/C (dose: 0.21 mg/kg/injection, schedule: Q01DX011 (ip), vehicle: carboxymethylcellulose (CMC)): 93 % of control and 94 % of control
T/C (dose: 0.34 mg/kg/injection, schedule: Q01DX011 (ip), vehicle: carboxymethylcellulose (CMC)): 86 % of control
T/C (dose: 0.42 mg/kg/injection, schedule: Q01DX011 (ip), vehicle: carboxymethylcellulose (CMC)): 53 % of control and 54 % of control
T/C (dose: 0.67 mg/kg/injection, schedule: Q01DX011 (ip), vehicle: carboxymethylcellulose (CMC)): 45 % of control
T/C (dose: 0.68 mg/kg/injection, schedule: Q01DX011 (ip), vehicle: carboxymethylcellulose (CMC)): 77 % of control and 80 % of control
T/C (dose: 0.83 mg/kg/injection, schedule: Q01DX011 (ip), vehicle: carboxymethylcellulose (CMC)): 58 % of control
T/C (dose: 1.11 mg/kg/injection, schedule: Q01DX011 (ip), vehicle: carboxymethylcellulose (CMC)): 59 % of control
T/C (dose: 1.13 mg/kg/injection, schedule: Q01DX011 (ip), vehicle: carboxymethylcellulose (CMC)): 40 % of control
T/C (dose: 1.35 mg/kg/injection, schedule: Q01DX011 (ip), vehicle: carboxymethylcellulose (CMC)): 22 % of control
T/C (dose: 1.67 mg/kg/injection, schedule: Q01DX011 (ip), vehicle: carboxymethylcellulose (CMC)): 18 % of control
T/C (dose: 1.69 mg/kg/injection, schedule: Q01DX011 (ip), vehicle: carboxymethylcellulose (CMC)): 27 % of control and 28 % of control

CC(=O)OC1CCC(C2CCCCC2)CC1 (stereo unspecified)
T/C (dose: 29.0 mg/kg/injection, schedule: Q01DX011 (ip), vehicle: saline): 157 % of control
T/C (dose: 57.0 mg/kg/injection, schedule: Q01DX011 (ip), vehicle: saline): 173 % of control
T/C (dose: 57.0 mg/kg/injection, schedule: Q01DX011 (oral), vehicle: saline): 86 % of control
T/C (dose: 113.0 mg/kg/injection, schedule: Q01DX011 (oral), vehicle: saline): 102 % of control
T/C (dose: 225.0 mg/kg/injection, schedule: Q01DX011 (oral), vehicle: saline): 84 % of control

C#CCn1cnc2c(Cl)ncnc21
T/C (dose: 5.0 mg/kg/injection, schedule: Q01DX011 (ip), vehicle: carboxymethylcellulose (CMC)): 61 % of control
T/C [1]: 48 % of control
T/C (dose: 25.0 mg/kg/injection, schedule: Q01DX011 (ip), vehicle: carboxymethylcellulose (CMC)): 13 % of control
T/C (dose: 35.0 mg/kg/injection, schedule: Q01DX011 (ip), vehicle: carboxymethylcellulose (CMC)): 14 % of control
T/C [2]: 8 % of control
T/C (dose: 100.0 mg/kg/injection, schedule: Q01DX011 (ip), vehicle: carboxymethylcellulose (CMC)): 3 % of control

O=C(NCCCl)N1CCN(C(=O)NCCCl)CC1
T/C [3]: 55 % of control
T/C [4]: 67 % of control
T/C (dose: 200.0 mg/kg/injection, schedule: Q01DX011 (ip), vehicle: methylcellulose (MC)): 39 % of control
T/C (dose: 400.0 mg/kg/injection, schedule: Q01DX011 (ip), vehicle: methylcellulose (MC)): 24 % of control

CN[C@H]1CCc2cc(OC)c(OC)c(OC)c2-c2ccc(OC)c(=O)cc21
T/C (dose: 0.75 mg/kg/injection, schedule: Q01DX011 (ip), vehicle: methylcellulose (MC)): 44 % of control
T/C (dose: 1.5 mg/kg/injection, schedule: Q01DX011 (ip), vehicle: methylcellulose (MC)): 60 % of control
T/C (dose: 3.0 mg/kg/injection, schedule: Q01DX011 (ip), vehicle: methylcellulose (MC)): 56 % of control
T/C (dose: 6.0 mg/kg/injection, schedule: Q01DX011 (ip), vehicle: methylcellulose (MC)): 7 % of control

O=C(CCCl)N1CCN(c2ccccc2)CC1
T/C [5]: 51 % of control
T/C (dose: 75.0 mg/kg/injection, schedule: Q01DX011 (ip), vehicle: methylcellulose (MC)): 61 % of control
T/C (dose: 225.0 mg/kg/injection, schedule: Q01DX011 (ip), vehicle: methylcellulose (MC)): 60 % of control

Cc1cc2c(cc1C)NC(C)CC(=O)N2 (stereo unspecified)
T/C [2]: 89 % of control
T/C (dose: 50.0 mg/kg/injection, schedule: Q01DX011 (ip), vehicle: other): 80 % of control
T/C (dose: 100.0 mg/kg/injection, schedule: Q01DX011 (ip), vehicle: other): 48 % of control
T/C (dose: 200.0 mg/kg/injection, schedule: Q01DX011 (ip), vehicle: carboxymethylcellulose (CMC)): 84 % of control

Cn1cnc([N+](=O)[O-])c1Sc1nc(N)nc2c1ncn2C1OC(CO)C(O)C1O (stereo unspecified)
T/C (dose: 0.03 mg/kg/injection, schedule: Q01DX011 (ip), vehicle: methylcellulose (MC)): 89 % of control
T/C (dose: 0.06 mg/kg/injection, schedule: Q01DX011 (ip), vehicle: methylcellulose (MC)): 76 % of control
T/C (dose: 0.11 mg/kg/injection, schedule: Q01DX011 (ip), vehicle: methylcellulose (MC)): 14 % of control
T/C (dose: 0.22 mg/kg/injection, schedule: Q01DX011 (ip), vehicle: methylcellulose (MC)): 1 % of control and 2 % of control
T/C (dose: 0.44 mg/kg/injection, schedule: Q01DX011 (ip), vehicle: methylcellulose (MC)): 2 % of control
T/C (dose: 0.88 mg/kg/injection, schedule: Q01DX011 (ip), vehicle: methylcellulose (MC)): 1 % of control
T/C (dose: 1.75 mg/kg/injection, schedule: Q01DX011 (ip), vehicle: methylcellulose (MC)): 2 % of control

CC(CNC(=O)CCBr)NC(=O)CCBr (stereo unspecified)
T/C (dose: 37.5 mg/kg/injection, schedule: Q01DX011 (ip), vehicle: carboxymethylcellulose (CMC)): 79 % of control and 81 % of control
T/C (dose: 75.0 mg/kg/injection, schedule: Q01DX011 (ip), vehicle: carboxymethylcellulose (CMC)): 26 % of control and 36 % of control
T/C (dose: 150.0 mg/kg/injection, schedule: Q01DX011 (ip), vehicle: carboxymethylcellulose (CMC)): 10 % of control and 19 % of control

O=c1[nH]c(=O)n(C2CC(O)C(CO)O2)cc1F (stereo unspecified)
T/C (dose: 13.12 mg/kg/injection, schedule: Q01DX011 (ip), vehicle: carboxymethylcellulose (CMC)): 124 % of control
T/C [1]: 72 % of control
T/C (dose: 19.0 mg/kg/injection, schedule: Q01DX011 (ip), vehicle: other): 66 % of control
T/C [5]: 54 % of control
T/C (dose: 26.25 mg/kg/injection, schedule: Q01DX011 (ip), vehicle: carboxymethylcellulose (CMC)): 68 % of control
T/C (dose: 30.0 mg/kg/injection, schedule: Q01DX006 (ip), vehicle: other): 80 % of control
T/C [6]: 37 % of control
T/C (dose: 37.5 mg/kg/injection, schedule: Q01DX011 (ip), vehicle: other): 28 % of control
T/C [3]: 25 % of control
T/C (dose: 52.5 mg/kg/injection, schedule: Q01DX011 (ip), vehicle: carboxymethylcellulose (CMC)): 59 % of control
T/C (dose: 60.0 mg/kg/injection, schedule: Q01DX006 (ip), vehicle: other): 37 % of control
T/C [7]: 14 % of control
T/C (dose: 75.0 mg/kg/injection, schedule: Q01DX011 (ip), vehicle: other): 3 % of control
T/C [4]: 6 % of control
T/C (dose: 105.0 mg/kg/injection, schedule: Q01DX011 (ip), vehicle: carboxymethylcellulose (CMC)): 54 % of control
T/C (dose: 120.0 mg/kg/injection, schedule: Q01DX006 (ip), vehicle: other): 29 % of control
T/C (dose: 121.0 mg/kg/injection, schedule: Q01DX011 (ip), vehicle: carboxymethylcellulose (CMC)): 3 % of control
T/C (dose: 240.0 mg/kg/injection, schedule: Q01DX006 (ip), vehicle: other): 6 % of control
T/C (dose: 480.0 mg/kg/injection, schedule: Q01DX006 (ip), vehicle: other): 2 % of control

FC(F)(F)c1nc(Cl)nc2c1ncn2Cc1ccccc1
T/C [6]: 56 % of control
T/C [7]: 97 % of control
T/C (dose: 120.0 mg/kg/injection, schedule: Q01DX011 (ip), vehicle: carboxymethylcellulose (CMC)): 97 % of control

CN(C)N=Nc1ccc(C(=O)NC(CCC(=O)NN)C(=O)NN)cc1 (stereo unspecified)
T/C (dose: 100.0 mg/kg/injection, schedule: Q01DX011 (ip), vehicle: saline): 92 % of control
T/C (dose: 150.0 mg/kg/injection, schedule: Q01DX011 (ip), vehicle: saline): 81 % of control
